The nature of one data set: Water solubility. Format: physicochemical. An excerpt:
In vitro testing has shown that due to its poor water solubility, triclosan is released from these films only slowly over […] period, with minimal initial burst release.

Data set [1] in a line: Stability of gentamicin sulfate to manufacturing conditions (heat, organic solvents). Format: physicochemical. The text has this: In one embodiment, the drug selected must be stable during the manufacturing processes required to fabricate the implant.

On to `Oc1cc(Cl)ccc1Oc1ccc(Cl)cc1Cl` [triclosan, 2,4,4′-trichloro-2′-hydroxydiphenyl ether], for which the water solubility entry in “Water solubility” is “poor”.

Regarding Gentamicin sulfate, in data set [1], the “thermal stability (thermally stable above)” value is “above 100 °C”. The “stability to organic solvents” value in data set [1] (organic solvents including DMSO) was “stable”.

Source of the values: patent US9381683B2, “Films and methods of manufacture” (priority 2011, dated 2016).
